The text below walks through data of patent US8703768B2, “Nitrogen containing heteroaryl compounds” (Hoffmann-La Roche Inc., priority 2010, dated 2014).

This test addresses human PDE10A (Homo sapiens (Human), UniProt Q9Y233). Put plainly: human PDE10A full length Scintillation Proximity Assay (SPA). In kind it is biochemical. The note with it: 50 nM cGMP and 50 nM [3H]-cGMP, 20 minutes at room temperature; read-out: PDE10A inhibition IC50. How it is done:
The following test was carried out in order to determine the activity of the compounds of the present invention.
The human PDE10A full length assay was performed in 96-well micro titer plates. […] Non-specific activity was tested without the enzyme. The reaction was initiated by the addition of the substrate solution (cGMP and [^3H]-cGMP) and allowed to progress for 20 minutes at room temperature. The reaction was terminated by adding 25 μl of YSi-SPA scintillation beads (GE Healthcare, cat. # RPNQ0150) in 18 mM zinc sulphate solution (stop reagent). After 1 h under shaking, the plate was centrifuged one minute at 170 g to allow beads to settle. Afterwards, radioactive counts were measured on a Perkin Elmer TopCount Scintillation plate reader.
A general note: In a scintillation proximity assay essentially only radioactivity close to the scintillant gives light.

By pIC50 is commonly meant the negative decadic logarithm of the IC50, by convention in mol/L.

pIC50: −log10 of the molar value.

Sequence of human PDE10A (Q9Y233 other isoform, or with tags, fused parts or gaps): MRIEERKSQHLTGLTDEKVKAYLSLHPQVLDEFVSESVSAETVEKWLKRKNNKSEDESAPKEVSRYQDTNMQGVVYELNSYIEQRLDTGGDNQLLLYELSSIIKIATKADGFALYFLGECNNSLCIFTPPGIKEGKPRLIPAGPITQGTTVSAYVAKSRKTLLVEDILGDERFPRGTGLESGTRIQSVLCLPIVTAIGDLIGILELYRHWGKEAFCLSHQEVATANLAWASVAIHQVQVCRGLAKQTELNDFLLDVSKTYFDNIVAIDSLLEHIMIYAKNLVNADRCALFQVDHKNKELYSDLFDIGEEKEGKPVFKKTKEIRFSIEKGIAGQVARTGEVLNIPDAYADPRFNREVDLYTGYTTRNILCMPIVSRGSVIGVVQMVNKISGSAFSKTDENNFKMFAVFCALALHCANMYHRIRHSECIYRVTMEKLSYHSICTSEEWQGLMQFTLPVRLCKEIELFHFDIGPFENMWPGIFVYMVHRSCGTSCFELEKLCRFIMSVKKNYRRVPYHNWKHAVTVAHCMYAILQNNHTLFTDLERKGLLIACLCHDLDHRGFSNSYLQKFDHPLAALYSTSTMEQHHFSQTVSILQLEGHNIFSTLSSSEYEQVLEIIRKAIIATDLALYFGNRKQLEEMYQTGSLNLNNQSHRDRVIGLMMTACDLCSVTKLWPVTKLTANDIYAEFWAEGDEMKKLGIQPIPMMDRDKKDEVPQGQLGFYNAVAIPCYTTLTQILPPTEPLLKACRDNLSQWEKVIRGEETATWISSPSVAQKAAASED

On to `CC1CCCN1C(=O)c1ncccc1NC(=O)c1nc(C2CC2)cnc1Nc1cncnc1` (stereo not drawn) [Example 252, 6-Cyclopropyl-3-(pyrimidin-5-ylamino)-pyrazine-2-carboxylic acid [2-(2-methyl-pyrrolidine-1-carbonyl)-pyridin-3-yl]-amide], for which the pIC50 was 8.24.
Under `CC1CCCN1C(=O)c1ccncc1NC(=O)c1nc(C2CC2)ccc1Nc1cncnc1` (stereo not drawn) [Example 55, 6-Cyclopropyl-3-(pyrimidin-5-ylamino)-pyridine-2-carboxylic acid [4-(2-methyl-pyrrolidine-1-carbonyl)-pyridin-3-yl]-amide] stands 6.94.
With `CNC(=O)c1nc(C)ccc1NC(=O)c1nc(C2CC2)cnc1Nc1cncnc1` [Example 182, 6-Cyclopropyl-3-(pyrimidin-5-ylamino)-pyrazine-2-carboxylic acid (6-methyl-2-methylcarbamoyl-pyridin-3-yl)-amide] the figure was 8.46; with `O=C(NCC1CCCO1)c1ccncc1NC(=O)c1nc(C2CC2)cnc1Nc1cncnc1` (stereo not drawn) [Example 101, 6-Cyclopropyl-3-(pyrimidin-5-ylamino)-pyrazine-2-carboxylic acid {4-[(tetrahydro-furan-2-ylmethyl)-carbamoyl]-pyridin-3-yl}-amide], 8.82; with `CNC(=O)c1c(NC(=O)c2nc(C3CC3)cnc2Nc2cncnc2)ccc(C)c1C` [Example 263, 6-Cyclopropyl-3-(pyrimidin-5-ylamino)-pyrazine-2-carboxylic acid (3,4-dimethyl-2-methylcarbamoyl-phenyl)-amide], 7.27.
Under `CCn1ncc(NC(=O)c2nc(C3CC3)cnc2Nc2cncnc2)c1C(=O)NC` [Example 133, 6-Cyclopropyl-3-(pyrimidin-5-ylamino)-pyrazine-2-carboxylic acid (1-ethyl-5-methylcarbamoyl-1H-pyrazol-4-yl)-amide] stands 8.17.
As to `Cn1ncc(NC(=O)c2nc(C3CC3)cnc2Nc2cncnc2)c1C(=O)NC1(C)COC1` [Example 136, 6-Cyclopropyl-3-(pyrimidin-5-ylamino)-pyrazine-2-carboxylic acid [1-methyl-5-(3-methyl-oxetan-3-ylcarbamoyl)-1H-pyrazol-4-yl]-amide], the pIC50 is 8.44.
Under `CN(C)C(=O)c1cc(F)ccc1NC(=O)c1nc(C2CC2)cnc1Nc1cncnc1` [Example 298, 6-Cyclopropyl-3-(pyrimidin-5-ylamino)-pyrazine-2-carboxylic acid (2-dimethylcarbamoyl-4-fluoro-phenyl)-amide] stands 8.11.
Under `Cn1ncc(NC(=O)c2nc(C3CC3)cnc2Nc2cncnc2)c1C(=O)N1CCOCC1` [Example 179, 6-Cyclopropyl-3-(pyrimidin-5-ylamino)-pyrazine-2-carboxylic acid [1-methyl-5-(morpholine-4-carbonyl)-1H-pyrazol-4-yl]-amide] stands 6.83.
Under `CNC(=O)c1c(NC(=O)c2nc(C3CC3)ncc2Nc2cncnc2)cnn1C` [Example 314, 2-Cyclopropyl-5-(pyrimidin-5-ylamino)-pyrimidine-4-carboxylic acid (1-methyl-5-methylcarbamoyl-1H-pyrazol-4-yl)-amide] stands 7.46; under `CNC(=O)c1nn(-c2ccccc2)cc1NC(=O)c1nc(C2CC2)ccc1Nc1cncnc1` [Example 25, 6-Cyclopropyl-3-(pyrimidin-5-ylamino)-pyridine-2-carboxylic acid (3-methylcarbamoyl-1-phenyl-1H-pyrazol-4-yl)-amide], 5.73.
Take `CNC(=O)c1c(NC(=O)c2nc(C(C)(C)O)ncc2Nc2cncnc2)cnn1C` [Example 340, 2-(1-Hydroxy-1-methyl-ethyl)-5-(pyrimidin-5-ylamino)-pyrimidine-4-carboxylic acid (1-methyl-5-methylcarbamoyl-1H-pyrazol-4-yl)-amide]: the pIC50 was 6.60.
`CC1COCCN1C(=O)c1ncccc1NC(=O)c1nc(C2CC2)cnc1Nc1cncnc1` (stereo not drawn) [Example 254, 6-Cyclopropyl-3-(pyrimidin-5-ylamino)-pyrazine-2-carboxylic acid [2-(3-methyl-morpholine-4-carbonyl)-pyridin-3-yl]-amide]: the negative logarithm of the IC50 (pIC50) is 7.50.
Take `CC(C)(O)CNC(=O)c1c(NC(=O)c2nc(C3CC3)cnc2Nc2cncnc2)cnn1CC(F)(F)F` [Example 175, 6-Cyclopropyl-3-(pyrimidin-5-ylamino)-pyrazine-2-carboxylic acid [5-(2-hydroxy-2-methyl-propylcarbamoyl)-1-(2,2,2-trifluoro-ethyl)-1H-pyrazol-4-yl]-amide]: the pIC50 was 7.60.
With `O=C(Nc1cccc(F)c1C(=O)N1CCC1)c1nc(C2CC2)cnc1Nc1cncnc1` [Example 309, 6-Cyclopropyl-3-(pyrimidin-5-ylamino)-pyrazine-2-carboxylic acid [2-(azetidine-1-carbonyl)-3-fluoro-phenyl]-amide] the figure was 8.96.
Under `CNC(=O)c1c(NC(=O)c2nc([C@H]3CCOC3)cnc2Nc2cncnc2)cnn1C` [Example 266, 3-(Pyrimidin-5-ylamino)-6-(R)-tetrahydro-furan-3-yl-pyrazine-2-carboxylic acid (1-methyl-5-methylcarbamoyl-1H-pyrazol-4-yl)-amide] stands 7.92; under `CNC(=O)c1cc(F)c(F)cc1NC(=O)c1nc(C2CC2)cnc1Nc1cncnc1` [Example 288, 6-Cyclopropyl-3-(pyrimidin-5-ylamino)-pyrazine-2-carboxylic acid (4,5-difluoro-2-methylcarbamoyl-phenyl)-amide], 9.10.
With `CNC(=O)c1nn(CCOC)cc1NC(=O)c1nc(C2CC2)ccc1Nc1cncnc1` [Example 18, 6-Cyclopropyl-3-(pyrimidin-5-ylamino)-pyridine-2-carboxylic acid [1-(2-methoxy-ethyl)-3-methylcarbamoyl-1H-pyrazol-4-yl]-amide] the figure was 7.04.
`CCNC(=O)c1c(NC(=O)c2nc(C3CC3)cnc2Nc2cncnc2)cnn1C` [Example 197, 6-Cyclopropyl-3-(pyrimidin-5-ylamino)-pyrazine-2-carboxylic acid (5-ethylcarbamoyl-1-methyl-1H-pyrazol-4-yl)-amide]: the pIC50 is 8.41.
Under `CNC(=O)c1nn(C)cc1NC(=O)c1nc(C2CCCCC2)ncc1Nc1cncnc1` [Example 84, 2-Cyclohexyl-5-(pyrimidin-5-ylamino)-pyrimidine-4-carboxylic acid (1-methyl-3-methylcarbamoyl-1H-pyrazol-4-yl)-amide] stands 8.72; under `Cn1cc(NC(=O)c2nc(C3CC3)ccc2Nc2cncnc2)c(C(=O)NC2CC2)n1` [Example 31, 6-Cyclopropyl-3-(pyrimidin-5-ylamino)-pyridine-2-carboxylic acid (3-cyclopropylcarbamoyl-1-methyl-1H-pyrazol-4-yl)-amide], 8.51; under `CNC(=O)c1cc(C(F)(F)F)ccc1NC(=O)c1nc(C2CC2)cnc1Nc1cncnc1` [Example 296, 6-Cyclopropyl-3-(pyrimidin-5-ylamino)-pyrazine-2-carboxylic acid (2-methylcarbamoyl-4-trifluoromethyl-phenyl)-amide], 8.41.
With `CNC(=O)c1c(NC(=O)c2nc(C3CC3)cnc2Nc2cnccn2)cnn1C` [Example 200, 6-Cyclopropyl-3-(pyrazin-2-ylamino)-pyrazine-2-carboxylic acid (1-methyl-5-methylcarbamoyl-1H-pyrazol-4-yl)-amide] the figure was 6.37; with `O=C(NCCO)c1ccncc1NC(=O)c1nc(C2CC2)ccc1Nc1cncnc1` [Example 68, 6-Cyclopropyl-3-(pyrimidin-5-ylamino)-pyridine-2-carboxylic acid [4-(2-hydroxy-ethylcarbamoyl)-pyridin-3-yl]-amide], 8.48.
With `CON(C)C(=O)c1c(NC(=O)c2nc(C3CC3)cnc2Nc2cncnc2)cnn1C` [Example 334, 6-Cyclopropyl-3-(pyrimidin-5-ylamino)-pyrazine-2-carboxylic acid [5-(methoxy-methyl-carbamoyl)-1-methyl-1H-pyrazol-4-yl]-amide] the figure was 8.66.
`O=C(Nc1cnccc1C(=O)N1CCCC1)c1nc(C2CC2)ccc1Nc1cncnc1` [Example 22, 6-Cyclopropyl-3-(pyrimidin-5-ylamino)-pyridine-2-carboxylic acid [4-(pyrrolidine-1-carbonyl)-pyridin-3-yl]-amide]: the pIC50 is 7.73.
With `CC1CCC(C)N1C(=O)c1nn(C)cc1NC(=O)c1nc(C2CC2)ccc1Nc1cncnc1` (stereo not drawn) [Example 35, 6-Cyclopropyl-3-(pyrimidin-5-ylamino)-pyridine-2-carboxylic acid [3-(2,5-dimethyl-pyrrolidine-1-carbonyl)-1-methyl-1H-pyrazol-4-yl]-amide] the figure was 7.34.
Under `CN(C(=O)c1c(NC(=O)c2nc(C3CC3)cnc2Nc2cncnc2)cnn1C)C1CCOCC1` [Example 231, 6-Cyclopropyl-3-(pyrimidin-5-ylamino)-pyrazine-2-carboxylic acid {1-methyl-5-[methyl-(tetrahydro-pyran-4-yl)-carbamoyl]-1H-pyrazol-4-yl}-amide] stands 7.38.
Regarding `CNC(=O)c1c(NC(=O)c2nc(C3CC3)ccc2Nc2cncnc2)cnn1CC1CC1` [Example 13, 6-Cyclopropyl-3-(pyrimidin-5-ylamino)-pyridine-2-carboxylic acid (1-cyclopropylmethyl-5-methylcarbamoyl-1H-pyrazol-4-yl)-amide], the pIC50 is 6.59.
In the case of `CC(C)(O)CNC(=O)c1c(NC(=O)c2nc(C3CC3)cnc2Nc2cncnc2)cnn1CC1CCO1` (stereo not drawn) [Example 283, 6-Cyclopropyl-3-(pyrimidin-5-ylamino)-pyrazine-2-carboxylic acid [5-(2-hydroxy-2-methyl-propylcarbamoyl)-1-oxetan-2-ylmethyl-1H-pyrazol-4-yl]-amide], the negative logarithm of the IC50 (pIC50) is 8.96.
